# In patent US20250326772A1, “MRGPRX2 ANTAGONISTS, PHARMACEUTICAL COMPOSITION INCLUDING MRGPRX2 ANTAGONIST, AND METHOD OF TREATING MRGPRX2-MEDIATED DISEASE OR DISORDER” (KYORIN PHARMACEUTICAL CO., LTD., priority 2024, published 2025):
# Molecular target: T1, MRGPRX2 (Homo sapiens, UniProt Q96LB1)
# T1 sequence (Q96LB1 1-330): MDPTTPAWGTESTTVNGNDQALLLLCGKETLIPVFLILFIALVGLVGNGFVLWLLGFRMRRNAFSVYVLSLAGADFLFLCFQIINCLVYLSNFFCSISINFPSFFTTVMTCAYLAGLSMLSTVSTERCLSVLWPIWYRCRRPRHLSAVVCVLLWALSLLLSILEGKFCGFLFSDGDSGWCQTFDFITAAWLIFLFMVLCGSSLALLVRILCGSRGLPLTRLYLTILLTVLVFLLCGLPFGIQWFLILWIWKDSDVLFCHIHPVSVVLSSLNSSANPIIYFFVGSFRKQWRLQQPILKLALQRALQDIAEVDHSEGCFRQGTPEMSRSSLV
# Test: MRGPRX2 reporter cell assay (NFAT-RE luciferase, Substance P stimulation)
# Type: cell-based
# Details: U2OS cells stably transfected with MRGPRX2 and NFAT-RE luciferase reporter; Substance P at EC80; class symbols
# Description: MRGPRX2 Reporter Cell Assays U2OS cells (ATCC, Manassas, VA) were stably transfected with MRGPRX2 expression clones (GeneCopoeia, Rockville, MD) and the pGL4.30 [luc2P/NFAT-RE/Hygro] reporter plasmid (Promega, Madison, WI). Clonal cells were maintained in Growth Media (McCoy's 5A, 10% FBS, 495 μg/ml hygromycin, 2 μg/ml puromycin, 100 units/ml penicillin, and 100 ug/ml streptomycin). The day before assay, cells were plated to white 384-well microplates at 3000 (MRGPRX2) cells/well in 10 ul Assay Media (McCoy's 5A, 2% charcoal dextran stripped FBS, 100 units/ml penicillin, and 100 ug/ml streptomycin) (Gibco, Thermo Fisher) and allowed to adhere overnight. The following day, serially diluted compound stocks were added directly to the cells (final DMSO concentration of 0.5%) and pre-incubated for 30 minutes at 37° C., 5% CO2. The final concentration of Substance P (Tocris, Minneapolis, MN, or PEPTIDE INSTITUTE, Osaka, Japan) corresponding to EC80 was added to stimulate the (MRGPRX2) cells. Cells were returned to the incubator for 6 hrs, after which 5 ul of ONE-GLO substrate (Promega) was added. Luminescence was read within 15 minutes (BioTek, Winooski, VT or infinite M1000Pro, Tecan Japan, Kanagawa, Japan). Percent inhibition for each test compound was calculated using the formula: […] where: • A=the luminescence count of the “test compound” well • B=the median luminescence count of the “Vehicle (0.5% DMSO)” wells • C═the median luminescence count of the “Vehicle (0.5% DMSO)+5 uM of substance P” wells The mean percent inhibition of each concentration of “test compound” was used to generate dose-response curves. IC50 values were calculated using a four-parameter logistic fit to the data using GraphPad Prism software. • +++: […]
row,IC50 [nM],Compound
1,< 10,COC(=O)N[C@@H]1COc2c(-c3[nH]c4ncccc4c3-c3cn(C)nc3OC(F)F)c(C3CC3)nn2C1 [EX. 483]
2,< 10,C[C@@H](O)COC(=O)N[C@@H]1COc2c(-c3[nH]c4ncccc4c3-c3cn(C)nc3OC(F)F)c(C(F)F)nn2C1 [EX. 568]
3,< 10,COc1ccc(C#N)c(-c2c(-c3c(C(F)F)nn4c3OC[C@@H](N)C4)[nH]c3ncccc23)c1 [EX. 363]
4,100 to 1000,"COc1ccc(F)cc1-c1[nH]c2ncccc2c1C1=CC(C)(C)CCC1OC (stereo not shown) [EX. 351, 2-(5-fluoro-2-methoxyphenyl)-3-(6-methoxy-3,3-dimethylcyclohex-1-en-1-yl)-1H-pyrrolo[2,3-b]pyridine]"
5,< 10,"Cn1cc(-c2c(-c3c(C(F)F)nn4c3OC[C@@H](N)C4)[nH]c3ncsc23)c(OC(F)F)n1 [EX. 428, (S)-3-(6-(3-(difluoromethoxy)-1-methyl-1H-pyrazol-4-yl)-4H-pyrrolo[2,3-d]thiazol-5-yl)-2-(difluoromethyl)-6,7-dihydro-5H-pyrazolo[5,1-b] [1,3]oxazin-6-amine]"
6,< 10,"Cc1nn2c(c1-c1[nH]c3ncccc3c1-c1cn(C)nc1OC(F)F)OC[C@@H](O)C2 [EX. 480, (S)-3-(3-(3-(difluoromethoxy)-1-methyl-1H-pyrazol-4-yl)-1 H-pyrrolo[2,3-b]pyridin-2-yl)-2-methyl-6,7-dihydro-5H-pyrazolo[5,1-b] [1,3]oxazin-6-ol]"
7,< 10,COc1ccc(C#N)c(-c2c(-c3c(C(F)F)nn4c3OC[C@@H](F)C4)[nH]c3ncccc23)c1 [EX. 471]
8,< 10,"COC(=O)N[C@@H]1COc2c(-c3[nH]c4ncccc4c3-c3cccnc3OC(F)F)c(C(F)F)nn2C1 [EX. 512, methyl(S)-(3-(3-(2-(difluoromethoxy)pyridin-3-yl)-1H-10 pyrrolo[2,3-b]pyridin-2-yl)-2-(difluoromethyl)-6,7-dihydro-5H-pyrazolo[5,1-b] [1,3]oxazin-6-yl) carbamate]"
9,< 10,[2H]C([2H])([2H])Oc1ccc(C#N)c(-c2c(-c3c(C(F)F)nn4c3OCC(O)C4)[nH]c3ncccc23)c1 (stereo not shown) [EX. 202]
10,< 10,Cn1cc(-c2c(-c3c(C(F)F)nn4c3OC[C@@](C)(OCC(N)=O)C4)[nH]c3ncccc23)c(OC(F)F)n1 [EX. 482]
11,< 10,N#Cc1ccccc1-c1c(-c2csnc2C(F)F)[nH]c2ncccc12 [EX. 75]
12,< 10,N[C@@H]1COc2c(-c3[nH]c4ncccc4c3-c3csnc3OC(F)F)c(C(F)F)nn2C1 [EX. 425]
13,< 10,O[C@@H]1COc2c(-c3[nH]c4ncccc4c3-c3cccc(F)c3OC(F)F)c(C(F)F)nn2C1 [EX. 466]
14,< 10,"Cn1cc(-c2c(-c3c(C(F)F)nn4c3OC[C@@H](O)C4)[nH]c3ncsc23)c(OC(F)F)n1 [EX. 427, (S)-3-(6-(3-(difluoromethoxy)-1-methyl-1H-pyrazol-4-yl)-4H-pyrrolo[2,3-d]thiazol-5-yl)-2-(difluoromethyl)-6,7-dihydro-5H-pyrazolo[5,1-b] [1,3]oxazin-6-ol]"
15,< 10,C[C@H](O)CC(=O)N[C@@H]1COc2c(-c3[nH]c4ncccc4c3-c3cn(C)nc3OC(F)F)c(C(F)F)nn2C1 [EX. 556]
16,< 10,"Cn1cc(-c2c(-c3c(C(F)F)nn4c3OC[C@@H](NS(C)(=O)=O)C4)[nH]c3ncccc23)c(OC(F)F)n1 [EX. 526, (S)—N-(3-(3-(3-(difluoromethoxy)-1-methyl-1H-pyrazol-4-yl)-1H-pyrrolo[2,3-b]pyridin-2-yl)-2-(difluoromethyl)-6,7-dihydro-5H-pyrazolo[5,1-b] [1,3]oxazin-6-yl) methanesulfonamide]"
17,< 10,FC(F)Oc1ncccc1-c1c(-c2c(C(F)F)nn3c2OCCC3)[nH]c2ncccc12 [EX. 410]
18,< 10,Cc1ccc(F)c(-c2c(-c3cn(C)nc3C(F)F)[nH]c3ncccc23)c1 [EX. 133]
19,< 10,Cn1cc(C(=O)N[C@@H]2COc3c(-c4[nH]c5ncccc5c4-c4cn(C)nc4OC(F)F)c(C(F)F)nn3C2)cn1 [EX. 562]
20,< 10,CCO[C@@H]1COc2c(-c3[nH]c4ncccc4c3-c3cn(C)nc3C#N)c(C(F)F)nn2C1 [EX. 502]
21,< 10,Cc1ccc(F)c(-c2c(-c3cn(C)nc3C(F)(F)F)[nH]c3ncccc23)c1 [EX. 299]
22,< 10,COc1ccc(C#N)c(-c2c(-c3c(C)nn4cccnc34)[nH]c3ncccc23)c1 [EX. 245]
23,< 10,Cc1cc(-c2c(-c3c(C4CC4)nn4c3OC[C@@H](NS(C)(=O)=O)C4)[nH]c3ncccc23)c(C#N)s1 [EX. 457]
24,< 10,"Cn1cc(-c2c(-c3c(C(F)F)nn4c3OC[C@@H](O)C4)[nH]c3ncccc23)c(C#N)n1 [EX. 491, (S)-4-(2-(2-(difluoromethyl)-6-hydroxy-6,7-dihydro-5H-pyrazolo[5,1-b] [1,3]oxazin-3-yl)-1H-pyrrolo[2,3-b]pyridin-3-yl)-1-methyl-1H-pyrazole-3-carbonitrile]"
25,< 10,CCO[C@@H]1COc2c(-c3[nH]c4ncccc4c3-c3cn(C)nc3OC(F)F)c(C(F)F)nn2C1 [EX. 532]

row,IC50 [nM],Compound
1,< 10,COc1nn2cccnc2c1-c1[nH]c2ncccc2c1-c1ccccc1C#N [EX. 141]
2,< 10,Cc1cc(-c2c(-c3c(C(F)F)nn4c3OC[C@@H](O)C4)[nH]c3ncccc23)c(C#N)s1 [EX. 458]
3,< 10,COc1ncccc1-c1c(-c2c(C(F)F)nn3c2OC[C@@H](F)C3)[nH]c2ncccc12 [EX. 446]
4,< 10,COC(=O)N[C@@H]1COc2c(-c3[nH]c4ncsc4c3-c3cn(C)nc3OC(F)F)c(C(F)F)nn2C1 [EX. 519]
5,< 10,N#Cc1ccccc1-c1c(-c2c(CF)nn3c2OCCC3)[nH]c2ncccc12 [EX. 271]
6,< 10,COC(=O)N[C@@H]1COc2c(-c3[nH]c4ncccc4c3-c3cc(C)sc3C#N)c(C(F)F)nn2C1 [EX. 516]
7,100 to 1000,N#Cc1cccnc1-c1c(-c2c(C(F)F)nn3c2OCCC3)[nH]c2ncccc12 [EX. 413]
8,< 10,"Cn1cc(-c2c(-c3c(C(F)F)nn4c3OC[C@@H](OCC(N)=O)C4)[nH]c3ncccc23)c(OC(F)F)n1 [EX. 583, (S)-2-((3-(3-(3-(difluoromethoxy)-1-methyl-1H-pyrazol-4-yl)-1H-pyrrolo[2,3-b]pyridin-2-yl)-2-(difluoromethyl)-6,7-dihydro-5H-pyrazolo[5,1-b] [1,3]oxazin-6-yl)oxy) acetamide]"
9,< 10,[2H]C([2H])([2H])Oc1ccc(C#N)c(-c2c(-c3c(CF)nn4c3OCCC4)[nH]c3ncccc23)c1 [EX. 235]
10,< 10,Cn1cc(-c2[nH]c3ncccc3c2-c2ccccc2C#N)c(CF)n1 [EX. 270]
11,< 10,[2H]C([2H])([2H])n1cc(-c2[nH]c3ncccc3c2-c2cc(OC)ccc2C#N)c(C(F)F)n1 [EX. 377]
12,< 10,CC(C)OC(=O)N[C@@H]1COc2c(-c3[nH]c4ncccc4c3-c3cn(C)nc3OC(F)F)c(C(F)F)nn2C1 [EX. 575]
13,< 10,[2H]C([2H])([2H])Oc1ccc(C#N)c(-c2c(-c3c(OC)nn4cccnc34)[nH]c3ncccc23)c1 [EX. 175]
14,< 10,COc1ccc(C#N)c(-c2c(-c3c(C)nn4c(C)ccnc34)[nH]c3ncccc23)c1 [EX. 254]
15,< 10,Cn1cc(-c2c(-c3c(C(F)F)nn4c3OC[C@@H](NC(=O)C3(F)CC3)C4)[nH]c3ncccc23)c(OC(F)F)n1 [EX. 588]
16,< 10,COc1ccsc1-c1[nH]c2ncccc2c1-c1ccccc1C#N [EX. 53]
17,< 10,Cn1cc(-c2c(-c3c(C4CC4)nn4c3OC[C@@H](O)C4)[nH]c3ncccc23)c(OC(F)F)n1 [EX. 485]
18,< 10,Cn1cc(-c2c(-c3c(C(F)F)nn4c3OC[C@@H](NC(=O)OCC(N)=O)C4)[nH]c3ncccc23)c(OC(F)F)n1 [EX. 584]
19,< 10,O[C@@H]1COc2c(-c3[nH]c4ncccc4c3-c3ccccc3OC(F)(F)F)c(C(F)F)nn2C1 [EX. 464]
20,< 10,COc1ccc(C#N)c(-c2c(-c3c(C(F)F)nn4c3OC[C@@H](O)C4)[nH]c3ncccc23)c1 [EX. 369]
21,< 10,COc1ccc(C#N)c(-c2c(-c3c(C)nn4cc(F)cnc34)[nH]c3ncccc23)c1 [EX. 182]
22,< 10,Cn1cc(-c2[nH]c3ncccc3c2-c2cc(F)ccc2C#N)c(C(F)F)n1 [EX. 300]
23,< 10,FC(F)Oc1cnccc1-c1c(-c2c(C(F)F)nn3c2OCCC3)[nH]c2ncccc12 [EX. 489]
24,< 10,Cn1cc(-c2c(-c3c(C(F)F)nn4c3OC[C@@H](NS(=O)(=O)CCCO)C4)[nH]c3ncccc23)c(OC(F)F)n1 [EX. 581]
